ChEMBL document CHEMBL4602617, “Discovery and optimization of heteroaryl piperazines as potent and selective PI3Kδ inhibitors” (Bioorg Med Chem Lett, 2020)

How the values were obtained:
[1] = target: Serine/threonine-protein kinase Sgk3 (Homo sapiens, UniProt Q96BR1); assay: Inhibition of recombinant human GST-tagged SGK3 catalytic domain (87 to 496 residues) expressed in baculovirus expression system using serine/threonine-6 peptide as substrate incubated for 60 mins in presence of ATP by Z'-LYTE assay
[2] = target: Calcium/calmodulin-dependent protein kinase type 1 (Homo sapiens, UniProt Q14012); assay: Inhibition of full length human CAMK1 alpha expressed in baculovirus expression system using ZIPtide as substrate after 1 hr in presence of ATP by TR-FRET based assay
[3] = target: Tyrosine-protein kinase ABL1 (Homo sapiens, UniProt P00519, E255K); assay: Inhibition of recombinant full length human His-tagged ABL1 E255K mutant cytoplasmic domain expressed in baculovirus expression system using tyrosine-2 peptide as substrate incubated for 60 mins in presence of ATP by Z'-LYTE assay
[4] = target: Estrogen receptor (Homo sapiens) (UniProt P03372); assay: Displacement of [3H]estradiol from recombinant full length human recombinant ERalpha receptor expressed in Sf9 insect cells at 10 uMmeasured after 120 mins by radiometric scintillation analysis relative to control; conditions: 10 uM
[5] = target: Muscarinic acetylcholine receptor M1 (Homo sapiens) (UniProt P11229); assay: Displacement of [3H]N-Methylscopolamine from full length human recombinant Muscarinic M1 receptor expressed in CHOK1 cells at 10 uM measured after 120 mins by radiometric scintillation analysis relative to control; assay type: cell-based; conditions: CHO-K1
[6] = target: cGMP-dependent protein kinase 1 (Homo sapiens, UniProt Q13976); assay: Inhibition of recombinant full length human GST-tagged PRKG1 expressed in baculovirus expression system using serine/threonine-01 peptide as substrate incubated for 60 mins in presence of ATP by Z'-LYTE assay
[7] = target: Serine/threonine-protein kinase Sgk1 (Homo sapiens, UniProt O00141); assay: Inhibition of recombinant human GST-tagged SGK1 catalytic domain (60 to 431 residues) expressed in baculovirus expression system using serine/threonine-6 peptide as substrate incubated for 60 mins in presence of ATP by Z'-LYTE assay
[8] = target: Endothelin-1 receptor (Homo sapiens) (UniProt P25101); assay: Displacement of [125I]endothelin-1 from recombinant full length human recombinant ETA receptor expressed in CHO-S cells at 10 uM measured after 120 mins by radiometric scintillation analysis relative to control; assay type: cell-based
[9] = target: Casein kinase II subunit alpha' (Homo sapiens, UniProt P19784); assay: Inhibition of recombinant human full-length GST-tagged CSNK2A2 expressed in baculovirus expression system using FRET-labeled Ser/Thr 11 peptide as substrate measured after 1 hr in presence of ATP by Z'-lyte assay
[10] = Distribution coefficient, logD of compound by HPLC analysis; assay type: physicochemical; conditions: octanol/water
[11] = target: Tyrosine-protein kinase Srms (Homo sapiens, UniProt Q9H3Y6); assay: Inhibition of recombinant full length human GST-tagged SRM expressed in baculovirus expression system using tyrosine-1 peptide as substrate incubated for 60 mins in presence of ATP by Z'-LYTE assay
[12] = target: Mitogen-activated protein kinase kinase kinase kinase 4 (Homo sapiens, UniProt O95819); assay: Inhibition of recombinant GST-tagged human MAP4K4 catalytic domain expressed in baculovirus expression system using Ser/Thr 07 peptide as substrate after 1 hr in presence of ATP by Z'-LYTE assay
[13] = target: Serine/threonine-protein kinase Nek7 (Homo sapiens, UniProt Q8TDX7); assay: Inhibition of NEK7 (unknown origin) by Z'LYTE assay
[14] = target: Leucine-rich repeat serine/threonine-protein kinase 2 (Homo sapiens, UniProt Q5S007, G2019S); assay: Inhibition of recombinant human GST-tagged LRRK2 G2019S mutant catalytic domain (970 to 2527 residues) expressed in baculovirus expression system using LRRKtide as substrate measured after 1 hr in presence of ATP by ADAPTA assay
[15] = target: Epidermal growth factor receptor (Homo sapiens, UniProt P00533, T790M); assay: Inhibition of human recombinant GST-tagged EGFR T790M mutant cytoplasmic domain expressed in baculovirus expression system using tyrosine 4 peptide as substrate after 60 mins in presence of ATP FRET based Z'-LYTE assay
[16] = Clearance in dog plasma at 0.5 mg/kg, iv or 1 mg/kg, po; assay type: ADME, organism-based, Canis lupus familiaris
[17] = Protein binding in rat plasma at 0.5 mg/kg, iv or 1 mg/kg, po; assay type: ADME, organism-based; conditions: read-out: PPB (converted)
[18] = target: Dual specificity tyrosine-phosphorylation-regulated kinase 4 (Homo sapiens, UniProt Q9NR20); assay: Inhibition of recombinant full length human GST-tagged DYRK4 expressed in baculovirus expression system using serine/threonine-9 peptide as substrate incubated for 60 mins in presence of ATP by Z'-LYTE assay
[19] = target: Mitogen-activated protein kinase 14 (Homo sapiens, UniProt Q16539); assay: Inhibition of recombinant full length GST-tagged human MAPK14 expressed in Escherichia coli using Ser/Thr 04 as substrate after 1 hr in presence of ATP by Z'LYTE assay
[20] = target: Homeodomain-interacting protein kinase 2 (Homo sapiens, UniProt Q9H2X6); assay: Inhibition of recombinant human GST-tagged HIPK2 expressed in baculovirus expression system using serine/threonine-9 peptide as substrate incubated for 60 mins in presence of ATP by Z'-LYTE assay
[21] = target: Casein kinase I isoform alpha (Homo sapiens, UniProt P48729); assay: Inhibition of recombinant full length human GST-tagged CSNK1A1 expressed in baculovirus expression system using fluorophore-labeled serine/threonine-11 peptide as substrate incubated for 60 mins in presence of ATP by Z'-LYTE assay
[22] = target: Phosphatidylinositol 4,5-bisphosphate 3-kinase catalytic subunit gamma isoform (Homo sapiens, UniProt P48736); assay: Inhibition of His-tagged recombinant human full length PI3K p110gamma expressed in baculovirus expression system using PIP2:PS lipid as substrate incubated for 1 hr in presence of ATP by Adapta assay
Rattus norvegicus [23] = species on record: Rattus norvegicus; assay: Displacement of [3H]hemicholinium-3 from choline transporter in Wistar rat striatal membranes at 10 uM after 20 mins by radiometric scintillation analysis relative to control; assay type: cell membranes; conditions: Striatum, Membrane
Rattus norvegicus [24] = species on record: Rattus norvegicus; assay: Displacement of [3H]GABA from Wistar rat brain GABA at 10 uM after 20 mins by radiometric scintillation analysis relative to control
[25] = target: Interleukin-1 receptor-associated kinase 4 (Homo sapiens, UniProt Q9NWZ3); assay: Inhibition of recombinant full length human His-tagged IRAK4 expressed in baculovirus expression system using serine/threonine-7 peptide as substrate incubated for 60 mins in presence of ATP by Z'-LYTE assay
[26] = target: Ribosomal protein S6 kinase beta-1 (Homo sapiens, UniProt P23443); assay: Inhibition of recombinant human GST-tagged p70S6K catalytic domain expressed in baculovirus expression system using serine/threonine-7 peptide as substrate incubated for 60 mins in presence of ATP by Z'-LYTE assay
Rattus norvegicus [27] = species on record: Rattus norvegicus; assay: Displacement of [3H]TBOB from GABAA chloride channel receptor in Wistar rat whole brain membranes at 10 uM measured after 120 mins by radiometric scintillation analysis relative to control; assay type: cell membranes; conditions: Membrane

Calcium/calmodulin-dependent protein kinase type 1, sequence (Q14012 whole entry, the tested form may be a part): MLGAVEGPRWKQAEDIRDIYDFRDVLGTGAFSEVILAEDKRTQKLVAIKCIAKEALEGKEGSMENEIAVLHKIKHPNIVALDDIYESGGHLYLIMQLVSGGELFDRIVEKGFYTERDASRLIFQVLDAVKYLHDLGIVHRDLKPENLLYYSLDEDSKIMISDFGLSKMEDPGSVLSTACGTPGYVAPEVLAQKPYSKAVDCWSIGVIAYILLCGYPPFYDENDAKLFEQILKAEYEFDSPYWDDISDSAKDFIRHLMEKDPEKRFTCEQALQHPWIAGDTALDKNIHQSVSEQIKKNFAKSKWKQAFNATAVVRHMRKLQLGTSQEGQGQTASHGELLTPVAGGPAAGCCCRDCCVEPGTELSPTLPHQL
Dual specificity tyrosine-phosphorylation-regulated kinase 4, sequence (Q9NR20 whole entry): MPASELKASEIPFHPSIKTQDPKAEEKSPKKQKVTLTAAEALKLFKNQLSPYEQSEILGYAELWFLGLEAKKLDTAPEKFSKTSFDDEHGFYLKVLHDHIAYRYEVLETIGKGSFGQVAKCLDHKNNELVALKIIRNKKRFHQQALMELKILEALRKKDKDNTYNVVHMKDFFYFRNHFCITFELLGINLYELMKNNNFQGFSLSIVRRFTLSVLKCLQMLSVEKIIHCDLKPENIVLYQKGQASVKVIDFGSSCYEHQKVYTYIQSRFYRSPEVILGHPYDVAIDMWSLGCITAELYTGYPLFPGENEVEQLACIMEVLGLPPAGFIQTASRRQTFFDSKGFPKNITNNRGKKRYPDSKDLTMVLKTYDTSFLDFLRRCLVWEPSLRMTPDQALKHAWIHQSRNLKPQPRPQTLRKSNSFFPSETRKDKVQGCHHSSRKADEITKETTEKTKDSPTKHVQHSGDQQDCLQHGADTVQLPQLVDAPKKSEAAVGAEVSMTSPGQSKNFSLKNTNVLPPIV
Endothelin-1 receptor (Homo sapiens), sequence (P25101 whole entry): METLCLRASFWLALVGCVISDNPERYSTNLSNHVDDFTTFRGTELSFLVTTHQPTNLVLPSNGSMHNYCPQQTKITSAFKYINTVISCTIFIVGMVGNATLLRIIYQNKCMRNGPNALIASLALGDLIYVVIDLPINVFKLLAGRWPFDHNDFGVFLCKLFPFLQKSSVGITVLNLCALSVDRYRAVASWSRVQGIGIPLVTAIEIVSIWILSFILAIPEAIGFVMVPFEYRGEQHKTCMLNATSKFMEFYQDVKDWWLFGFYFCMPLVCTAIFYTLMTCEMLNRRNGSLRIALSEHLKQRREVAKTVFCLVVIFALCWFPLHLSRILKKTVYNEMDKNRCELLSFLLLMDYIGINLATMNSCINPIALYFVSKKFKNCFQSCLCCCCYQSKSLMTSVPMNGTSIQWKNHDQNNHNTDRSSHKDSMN
Epidermal growth factor receptor, sequence (P00533 25-1210 T790M limits assumed): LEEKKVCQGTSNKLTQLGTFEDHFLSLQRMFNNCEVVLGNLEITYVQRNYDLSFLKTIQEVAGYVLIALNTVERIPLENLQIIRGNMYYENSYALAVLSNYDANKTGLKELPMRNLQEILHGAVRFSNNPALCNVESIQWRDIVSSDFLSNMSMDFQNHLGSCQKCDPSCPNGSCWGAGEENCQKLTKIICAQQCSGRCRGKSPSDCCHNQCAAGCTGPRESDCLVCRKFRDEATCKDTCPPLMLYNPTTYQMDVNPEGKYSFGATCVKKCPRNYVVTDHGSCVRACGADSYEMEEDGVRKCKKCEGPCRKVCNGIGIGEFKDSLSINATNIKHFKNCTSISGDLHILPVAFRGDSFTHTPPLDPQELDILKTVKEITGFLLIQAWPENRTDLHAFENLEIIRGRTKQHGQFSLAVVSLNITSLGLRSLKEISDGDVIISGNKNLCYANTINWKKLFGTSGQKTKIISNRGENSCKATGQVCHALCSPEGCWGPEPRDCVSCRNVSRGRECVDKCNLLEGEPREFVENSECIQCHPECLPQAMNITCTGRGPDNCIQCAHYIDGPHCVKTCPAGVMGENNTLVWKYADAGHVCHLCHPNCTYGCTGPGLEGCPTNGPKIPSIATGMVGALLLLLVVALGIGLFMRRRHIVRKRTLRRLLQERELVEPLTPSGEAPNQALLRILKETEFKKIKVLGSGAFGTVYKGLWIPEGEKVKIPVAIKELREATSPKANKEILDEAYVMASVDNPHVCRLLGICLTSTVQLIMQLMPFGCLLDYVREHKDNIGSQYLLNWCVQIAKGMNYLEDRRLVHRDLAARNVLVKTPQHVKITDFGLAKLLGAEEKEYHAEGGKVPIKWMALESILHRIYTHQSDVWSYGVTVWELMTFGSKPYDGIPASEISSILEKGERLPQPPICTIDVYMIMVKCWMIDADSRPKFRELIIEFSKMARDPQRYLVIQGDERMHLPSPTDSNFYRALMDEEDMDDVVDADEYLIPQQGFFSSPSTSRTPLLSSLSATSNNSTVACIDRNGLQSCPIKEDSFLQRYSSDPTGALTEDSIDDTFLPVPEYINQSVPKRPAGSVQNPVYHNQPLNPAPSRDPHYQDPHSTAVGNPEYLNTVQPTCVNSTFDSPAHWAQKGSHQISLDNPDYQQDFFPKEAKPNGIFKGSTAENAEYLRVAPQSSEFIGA
Phosphatidylinositol 4,5-bisphosphate 3-kinase catalytic subunit gamma isoform, sequence (P48736 whole entry, canonical isoform): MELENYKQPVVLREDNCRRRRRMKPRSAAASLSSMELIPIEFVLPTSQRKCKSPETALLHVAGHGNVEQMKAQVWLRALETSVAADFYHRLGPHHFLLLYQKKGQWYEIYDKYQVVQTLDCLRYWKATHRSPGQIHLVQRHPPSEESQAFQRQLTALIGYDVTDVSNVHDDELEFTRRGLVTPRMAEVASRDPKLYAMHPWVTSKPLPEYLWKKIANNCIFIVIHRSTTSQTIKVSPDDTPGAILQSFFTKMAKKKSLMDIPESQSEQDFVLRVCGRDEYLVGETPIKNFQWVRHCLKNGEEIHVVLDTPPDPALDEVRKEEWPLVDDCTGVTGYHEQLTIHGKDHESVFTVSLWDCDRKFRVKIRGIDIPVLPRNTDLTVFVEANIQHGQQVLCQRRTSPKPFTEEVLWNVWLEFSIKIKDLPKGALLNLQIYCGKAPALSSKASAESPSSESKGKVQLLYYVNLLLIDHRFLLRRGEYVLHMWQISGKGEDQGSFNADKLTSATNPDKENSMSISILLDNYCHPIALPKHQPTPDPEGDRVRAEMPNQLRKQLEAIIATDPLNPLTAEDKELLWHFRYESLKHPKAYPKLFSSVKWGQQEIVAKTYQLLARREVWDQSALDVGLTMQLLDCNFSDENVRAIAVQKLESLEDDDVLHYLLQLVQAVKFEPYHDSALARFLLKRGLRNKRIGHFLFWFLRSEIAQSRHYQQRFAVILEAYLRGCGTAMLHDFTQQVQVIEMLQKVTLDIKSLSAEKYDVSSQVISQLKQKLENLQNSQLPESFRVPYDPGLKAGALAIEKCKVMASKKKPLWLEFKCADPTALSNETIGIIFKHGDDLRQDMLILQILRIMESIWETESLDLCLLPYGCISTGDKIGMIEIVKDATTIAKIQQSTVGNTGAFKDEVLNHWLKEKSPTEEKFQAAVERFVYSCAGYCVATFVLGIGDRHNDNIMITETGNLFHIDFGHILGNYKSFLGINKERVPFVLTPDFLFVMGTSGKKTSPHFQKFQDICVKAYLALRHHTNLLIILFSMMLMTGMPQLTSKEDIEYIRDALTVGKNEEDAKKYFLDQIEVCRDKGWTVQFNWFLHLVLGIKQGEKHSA
Serine/threonine-protein kinase Sgk1, sequence (O00141 whole entry, the tested form may be a part): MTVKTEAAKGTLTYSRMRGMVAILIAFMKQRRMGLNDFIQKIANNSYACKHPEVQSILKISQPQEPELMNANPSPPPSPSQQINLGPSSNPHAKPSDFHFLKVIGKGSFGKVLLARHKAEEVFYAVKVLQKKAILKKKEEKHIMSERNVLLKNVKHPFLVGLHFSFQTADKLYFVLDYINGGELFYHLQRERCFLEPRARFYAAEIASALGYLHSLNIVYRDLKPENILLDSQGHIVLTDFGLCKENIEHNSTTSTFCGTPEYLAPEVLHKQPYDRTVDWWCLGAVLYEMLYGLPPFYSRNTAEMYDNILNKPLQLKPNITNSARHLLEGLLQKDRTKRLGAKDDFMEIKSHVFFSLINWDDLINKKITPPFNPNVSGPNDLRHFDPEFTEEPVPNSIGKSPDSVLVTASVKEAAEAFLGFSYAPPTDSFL
Muscarinic acetylcholine receptor M1 (Homo sapiens), sequence (P11229 whole entry): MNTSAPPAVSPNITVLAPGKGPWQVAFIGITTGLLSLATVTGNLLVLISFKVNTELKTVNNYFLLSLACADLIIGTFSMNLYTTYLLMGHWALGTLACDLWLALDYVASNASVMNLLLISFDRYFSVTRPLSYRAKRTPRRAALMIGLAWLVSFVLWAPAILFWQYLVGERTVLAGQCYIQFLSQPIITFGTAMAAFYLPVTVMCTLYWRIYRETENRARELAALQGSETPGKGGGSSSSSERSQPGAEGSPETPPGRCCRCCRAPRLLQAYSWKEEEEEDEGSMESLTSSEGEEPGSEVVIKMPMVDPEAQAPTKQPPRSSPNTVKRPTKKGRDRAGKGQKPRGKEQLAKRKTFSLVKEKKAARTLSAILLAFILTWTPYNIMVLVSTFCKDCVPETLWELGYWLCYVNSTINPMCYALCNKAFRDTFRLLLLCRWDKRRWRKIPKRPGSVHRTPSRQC
Serine/threonine-protein kinase Sgk3, sequence (Q96BR1 whole entry, the tested form may be a part): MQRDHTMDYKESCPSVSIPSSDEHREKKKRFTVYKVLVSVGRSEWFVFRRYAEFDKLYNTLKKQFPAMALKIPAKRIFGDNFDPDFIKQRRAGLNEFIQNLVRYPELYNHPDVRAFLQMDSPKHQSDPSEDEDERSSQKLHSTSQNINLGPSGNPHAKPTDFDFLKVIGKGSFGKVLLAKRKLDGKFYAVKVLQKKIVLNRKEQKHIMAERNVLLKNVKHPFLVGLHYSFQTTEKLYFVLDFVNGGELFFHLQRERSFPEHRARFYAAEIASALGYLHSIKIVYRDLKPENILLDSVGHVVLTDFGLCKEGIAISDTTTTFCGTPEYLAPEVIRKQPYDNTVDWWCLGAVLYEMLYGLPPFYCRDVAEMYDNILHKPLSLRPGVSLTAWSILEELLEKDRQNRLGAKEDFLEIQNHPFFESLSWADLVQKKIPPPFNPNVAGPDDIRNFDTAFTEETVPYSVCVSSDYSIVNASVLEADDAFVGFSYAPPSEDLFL

C[C@@H]1C[C@H]1C(=O)N1CCN(c2cnc(C#N)c(-c3cnn(C)c3)n2)C[C@H]1C
IC50 [1]: > 100 µM
IC50 [2]: > 100 µM
IC50 [3]: > 100 µM
inhibition [4]: 0%
inhibition [5]: -3%
IC50 [6]: > 100 µM
IC50 [7]: > 100 µM
inhibition [8]: -9%
IC50 [9]: > 100 µM
logD [10]: 1.6
IC50 [11]: > 100 µM
IC50 [12]: 26.3 µM
IC50 [13]: > 100 µM
IC50 [14]: > 100 µM
IC50 [15]: > 100 µM
clearance [16]: 0.48 L/h/kg
fraction unbound [17]: 0.152
IC50 [18]: > 100 µM
IC50 [19]: > 100 µM
IC50 [20]: > 100 µM
IC50 [21]: > 100 µM
IC50 [22]: 0.945 µM
inhibition (Rattus norvegicus [23]): -8%
inhibition (Rattus norvegicus [24]): 18%
IC50 [25]: > 100 µM
IC50 [26]: > 100 µM
inhibition (Rattus norvegicus [27]): -8%
